Reference: patent US7880014B2, “Angiotensin II receptor antagonists” (Merck Sharp & Dohme Corp., priority 2006, dated 2011)

Experiments:
CYP3A4 = biological target: T1, CYP3A4 (Homo sapiens, UniProt P08684); assay: CYP3A4 Time-Dependent Inhibition Assay (pooled human liver microsomes, testosterone 6β-hydroxylation); type: in vitro ADME; conditions: human liver microsomes 1 mg/mL, preincubation 5 to 30 min
T1 construct: Pooled human liver microsomes (1 mg/mL) were preincubated at 37° C; from tissue; host or cells: pooled human liver microsomes
Method: The incubation mixtures were diluted 10-fold with the same buffer containing 250 μM testosterone and an NADPH-generating system. The incubation was continued for an additional 10 min to monitor the extent of testosterone 6β-hydroxylation. The first order rate constants (kobs) for inactivation at 10 and 50 μM were calculated from the negative slope of the lines by linear regression analysis of the natural logarithm of the remaining activity as a function of time using KaleidaGraph Synergy Software (Reading, Pa.).

rabbit aortic slices = assay: vessel relaxation assay (in vitro, tissue-based, rabbit aortic slices); type: cell-based

T1 sequence (P08684 whole entry): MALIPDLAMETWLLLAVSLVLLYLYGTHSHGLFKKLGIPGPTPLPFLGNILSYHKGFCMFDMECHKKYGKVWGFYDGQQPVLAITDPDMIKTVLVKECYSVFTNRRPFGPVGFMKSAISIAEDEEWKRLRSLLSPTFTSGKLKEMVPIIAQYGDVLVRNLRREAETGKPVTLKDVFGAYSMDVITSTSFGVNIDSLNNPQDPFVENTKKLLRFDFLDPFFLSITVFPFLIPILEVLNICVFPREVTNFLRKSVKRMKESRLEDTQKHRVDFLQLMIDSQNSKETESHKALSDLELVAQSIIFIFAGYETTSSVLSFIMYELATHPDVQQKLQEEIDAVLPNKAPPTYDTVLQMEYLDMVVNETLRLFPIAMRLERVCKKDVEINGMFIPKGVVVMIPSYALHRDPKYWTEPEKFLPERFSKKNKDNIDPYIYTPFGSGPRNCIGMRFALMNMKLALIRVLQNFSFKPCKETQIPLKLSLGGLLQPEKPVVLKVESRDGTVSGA

Row | SMILES | Rate Constant (kobs) at 10 μM (CYP3A4) [min⁻¹] | Rate Constant (kobs) at 50 μM (CYP3A4) [min⁻¹] | EC50 (rabbit aortic slices) [nM]
1 | CCCCc1nc(Cl)c(C(=O)OC(C)OC(=O)OCCCC[C@H](CO[N+](=O)[O-])O[N+](=O)[O-])n1Cc1ccc(-c2ccccc2-c2nnn[nH]2)cc1 (single isomer, unassigned) [Compound 2] | 0.026 | 0.037 | 
2 | CCCCc1nc(Cl)c(C(=O)OC(C)OC(=O)OCCCC[C@H](CO[N+](=O)[O-])O[N+](=O)[O-])n1Cc1ccc(-c2ccccc2-c2nnn[nH]2)cc1 (single isomer, unassigned) [Compound 3] | ~0.077 | 0.076 | 1300
